From patent US9527819B2, “Pyridazine compounds, compositions and methods” (NORTHWESTERN UNIVERSITY, priority 2004, dated 2016) come the findings set out here.

In data set [1] the test system is Aβ-infused mice (hippocampus). As to the kind of experiment: Human Aβ infusion mouse model of neuroinflammation and neuronal injury. The class given is in vivo. The source says:
Briefly, oligomeric […] was infused ICV for 28 days with a micro-osmotic pump. […] At post-operative day 60, mice were perfused and sacrificed, and hippocampal endpoints measured as previously described. Endpoint assays included immunohistochemical detection of activated astrocytes and microglia by glial fibrillary acidic protein (GFAP) and F4/80 staining, measurement of the levels of the pro-inflammatory cytokines IL-1|S, TNFa, and S100B by ELISA, and determination of synaptic damage by analysis of the levels of postsynaptic density protein-95 (PSD-95). […] Cultures were treated with control buffer, C, or activated in the absence, A, or presence, A+188, of 7.5 μMW01-5-188WH. […] Bar=125 μm. […] A schematic of the experimental paradigm is shown. […] Bars=25 μm. […] Quantification of amyloid burden from all mice (n=5/group) was done by determination of the amyloid load. Data are mean±SEM. […] (C) Spontaneous alternation of mice in the Y-maze, a hippocampus-dependent spatial learning task, was measured for 10 days during the 7th and 8th week after the start of Aβ infusion. Data are mean±SEM of n=5 or 10 per group.

For data set [2], the system named is BV-2 mouse microglial cells. As to the kind of experiment: LPS-stimulated proinflammatory cytokine production in BV-2 microglial cell culture assay. The class given is cell-based. To be noted: for IL-1β production / TNFα production: LPS 100 ng/ml, 16 hrs, levels in cell lysates. As for the experimental part:
EL-1/3 and TNFa levels in cell lysates were determined by electro-chemiluminescent detection in a Meso-Scale Discovery (MSD) kit, as per the manufacturer's instructions.
Data are the mean+/− SEM of triplicate determinations.

In the next data set the target is hERG (Homo sapiens, UniProt Q12809). Put plainly: hERG competition binding assay (3H-astemizole). Conditions: HEK-293 cells stably expressing recombinant hERG channels, probe 3H-astemizole. The source says: The initial assay is a radioligand binding assay that tests the ability of the test compound to compete with ^3H-astemizole (a reference standard that binds to hERG channels with nM affinity) for binding to recombinant hERG channels stably expressed on human HEK-293 cells. […] This is usual for medium throughout screens but is not recommended in the FDA document and tends to give false positives, as evidenced by the results reported below.
For orientation: hERG is a cardiac potassium channel; its block is linked to QT prolongation.

The next data set deals with anesthetized guinea pigs. As to the kind of experiment: Cardiac QT interval prolongation assay. The class given is in vivo, guinea pig. To be noted: PO 15 mg/kg. On the procedure: The QT interval studies are performed by evaluating compounds for effects on QT interval in Lead II electrocardiograms measured in anesthetized guinea pigs (Hirohashi et al., 1991), one of the species recommended in the FDA white paper. Vehicle or compound is administered orally at 15 mg/kg (dosing volume of 10 ml/kg) to groups of male guinea pigs (weighing 330-350 g), with 5 animals per group. […] Heart rate, arterial blood pressure, and QT intervals are measured at baseline, and at 15, 30, 45, and 60 min after compound administration. Sotalol administered iv at 0.3 mg/kg serves as the positive control compound. The QT intervals are corrected for changes in heart rate using both Bazett's and Fridericia's formulae. Any increase in QT interval values over baseline values exceeding the upper 95% confidence limit of the mean changes at the corresponding time point in the vehicle-treated control group for two consecutive observation times indicates significant QT interval prolongation in the individually treated animals.

Data set [3] can be described thus: Oral administration / brain uptake assay. Conditions: mouse, in vivo.
Description: At various times (0-60 min) after administration, mice were sacrificed, blood removed by cardiac puncture, and brains immediately harvested, weighed, quick-frozen in liquid nitrogen, and stored at −80° C. until assayed. Brain tissue was homogenized in 1.5 ml of 0.1 M perchloric acid. After centrifugation (12,000×g for 10 min), the supernatant was neutralized, with 1 M NaOH and then extracted three times with 2 ml of dichloromethane by centrifugation at 3,000×g for 5 min. The organic phases from the three successive extractions were pooled and then vaporated to dryness under reduced pressure. The dried sample was reconstituted in 100 ul of HPLC mobile phase (80% acetonitrile, 0.08% formic acid, 20% H2O), and 20 μl of the reconstituted material was injected into the HPLC system. […] A standard curve of the test compound was prepared by adding increasing concentrations of the compound to brain, tissue from untreated mice, then extracting the brains and performing HPLC analysis as described above. The area under the curve increased linearly with the concentration of the compound over the range of concentrations investigated, with a correlation coefficient of 0.99.
Data set [4] can be described thus: Stability in liver microsomes. The class given is in vitro ADME, rat. To be noted: 1 μM, NADPH-regenerating system, 37° C. From the text:
The HPLC system (Dionex Corp., Sunnyvale, Calif.) includes a Dionex […] pump, a Phenomenex Luna.
(In general: Liver microsomes are a subcellular fraction often used to study metabolism.)

In a further data set the target is T1, hERG K+ channel (Homo sapiens, UniProt Q12809).
T1 construct: MDS PharmaService (commercial assay service)
Put plainly: hERG channel activity patch clamp inhibition assay. In kind it is cell-based. Conditions: three concentrations (0.1, 1, 10 μM), whole cell patch clamp. The source says: The hERG channel activity inhibition assay provides whole cell electrophysiological data about compound effects on the hERG K^+ channel function. Whole cell patch clamp methodology is generally considered to be the gold-standard determination of ion channel activity, rather than simply measuring channel binding. The standard testing procedure is to use 3 to 5 concentrations of compound at log dilutions with each concentration tested in triplicate (three cells). This allows a balance between achieving a reasonably accurate IC50 measurement against a broad concentration range, and reducing cell attrition that would occur during more protracted experiment durations. After completion of compound dose-response procedures, a known hERG channel inhibitor, such as astemizole, is applied as a positive control.

Another data set has as its system activated glia. Put plainly: Western blots of iNOS, COX-2, apoE production in activated glia cultures. In kind it is cell-based. Conditions: 7.5 μM, western blot. On the procedure:
Cultures were treated with control buffer, C, or activated in the absence, A, or presence, A+188, of 7.5 μMW01-5-188WH. […] Bar=125 μm. […] A schematic of the experimental paradigm is shown. […] Bars=25 μm. […] Quantification of amyloid burden from all mice (n=5/group) was done by determination of the amyloid load. Data are mean±SEM. […] (C) Spontaneous alternation of mice in the Y-maze, a hippocampus-dependent spatial learning task, was measured for 10 days during the 7th and 8th week after the start of Aβ infusion. Data are mean±SEM of n=5 or 10 per group.

Structures are written as SMILES.

Chain of hERG (Q12809 whole entry): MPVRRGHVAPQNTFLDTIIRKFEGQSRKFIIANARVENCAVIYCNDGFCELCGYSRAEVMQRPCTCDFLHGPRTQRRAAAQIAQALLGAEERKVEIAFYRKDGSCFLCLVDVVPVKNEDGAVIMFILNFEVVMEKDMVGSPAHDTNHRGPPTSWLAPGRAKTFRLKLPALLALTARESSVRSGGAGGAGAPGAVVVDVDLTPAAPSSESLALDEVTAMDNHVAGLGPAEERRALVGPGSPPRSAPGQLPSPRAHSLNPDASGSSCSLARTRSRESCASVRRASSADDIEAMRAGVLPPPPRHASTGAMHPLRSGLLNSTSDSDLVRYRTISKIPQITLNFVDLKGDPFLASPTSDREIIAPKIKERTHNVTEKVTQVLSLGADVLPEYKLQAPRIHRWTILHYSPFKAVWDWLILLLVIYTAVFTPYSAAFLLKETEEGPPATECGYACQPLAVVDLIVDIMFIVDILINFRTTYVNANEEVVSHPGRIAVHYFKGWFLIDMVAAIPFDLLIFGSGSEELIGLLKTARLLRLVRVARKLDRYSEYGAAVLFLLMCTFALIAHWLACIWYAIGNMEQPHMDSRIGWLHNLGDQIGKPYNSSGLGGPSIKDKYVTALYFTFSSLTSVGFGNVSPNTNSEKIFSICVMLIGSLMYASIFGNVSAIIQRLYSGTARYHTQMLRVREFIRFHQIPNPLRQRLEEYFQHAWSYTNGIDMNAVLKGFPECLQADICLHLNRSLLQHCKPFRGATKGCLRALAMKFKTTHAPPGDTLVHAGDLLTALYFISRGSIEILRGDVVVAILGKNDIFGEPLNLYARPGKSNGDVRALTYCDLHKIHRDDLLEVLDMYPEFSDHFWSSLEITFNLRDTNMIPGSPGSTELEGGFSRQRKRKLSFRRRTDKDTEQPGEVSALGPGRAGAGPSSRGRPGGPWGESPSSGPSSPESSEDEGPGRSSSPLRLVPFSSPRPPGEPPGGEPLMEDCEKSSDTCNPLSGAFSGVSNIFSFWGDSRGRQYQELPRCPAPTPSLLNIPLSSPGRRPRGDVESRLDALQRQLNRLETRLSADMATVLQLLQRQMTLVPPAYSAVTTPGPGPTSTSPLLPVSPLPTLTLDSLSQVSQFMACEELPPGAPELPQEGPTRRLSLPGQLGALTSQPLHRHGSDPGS
T1 sequence (Q12809 whole entry): as above

Usually inhibition stands for the share of the control response that was lost under treatment. The term IC50 denotes the point on the concentration scale where inhibition reaches its midpoint. `Cc1cc(-c2ccccc2)nnc1N1CCN(c2ncccn2)CC1` [MW01-2-151SRM, 4-methyl-6-phenyl-3-(4-pyrimidin-2-ylpiperazin-1-yl)pyridazine]: in data set [1] (mouse, in vivo), the “efficacy in the mouse model of human Aβ-induced neuroinflammation and neuronal injury” value is reported as “showed efficacy”; the “inflammatory response endpoints outside the brain” value is recorded as “did not suppress”. Also, in data set [2], the activated glia responses entry is “selective suppressor” and the IL-1β production entry is “suppress IL-1β in a concentration dependent manner”. In addition, the inhibition at 10 µM on hERG amounted to 8%. In addition, in the data set on anesthetized guinea pigs, the heart rate entry is listed as “no significant effects” and the mean blood pressure entry is given as “no significant effects”. Further, the “cardiac QT interval” value in the data set with anesthetized guinea pigs (baseline, 15, 30, 45, 60 min, vs mean+2 SD of vehicle control) was “Neither compound increased”. Further, the oral availability entry in data set [3] was “orally available”. The stability in microsomes entry in data set [4] is “demonstrated”. The compound further registered a half-inhibitory concentration (IC50) against hERG K+ channel of 9.21 µM.

As to `c1ccc(-c2ccc(N3CCN(c4ncccn4)CC3)nn2)cc1` [MW01-3-183WH, 2-(4-(6-phenylpyridazin-3-yl)piperazin-1-yl)pyrimidine], in data set [2], the IL-1β production result was “suppressed both IL-1β and TNFα production in a concentration dependent manner”; the TNFα production entry was “suppressed both IL-1β and TNFα production in a concentration dependent manner”.

Turning to `c1ccc(-c2cc(-c3ccccc3)c(N3CCN(c4ncccn4)CC3)nn2)cc1` [MW01-5-188WH, 4,6-diphenyl-3-(4-pyrimidin-2-ylpiperazin-1-yl)pyridazine], in data set [1] (daily oral […] for 2 weeks), the “number of F4/80 positive microglia in the hippocampus” value is recorded as “decreased”. Moreover, in the data set on activated glia, the COX-2 production result is reported as “does not suppress”, the apoE production entry was “does not suppress” and the iNOS production entry is “does not suppress”. Besides, in data set [2], the IL-1β production entry was “concentration-dependent inhibition” and the TNFα production entry is “concentration-dependent inhibition”. Moreover, the “Accumulation of the NO metabolite, nitrite” value in data set [2] (concentrations up to 33 μM) is listed as “not inhibited”. For the same compound, at hERG, the inhibition at 10 µM came to 91%. Moreover, in the data set with anesthetized guinea pigs, the heart rate result is listed as “no significant effects” and the mean blood pressure result is recorded as “no significant effects”.

Consider `Clc1cc(-c2ccccc2)nnc1N1CCN(c2ncccn2)CC1` [MW01-6-127WH, 4-chloro-6-phenyl-3-(4-pyrimidin-2-ylpiperazin-1-yl)pyridazine], for which, on hERG, the inhibition at 10 µM stood at 19%.

Consider `c1ccc(-c2cc(-c3ccncc3)c(N3CCN(c4ncccn4)CC3)nn2)cc1` [MW01-6-189WH, 4-pyridyl-6-phenyl-3-(4-pyrimidin-2-ylpiperazin-1-yl)pyridazine], for which the concentration for half-maximal inhibition (IC50) on hERG K+ channel amounted to 4.81 µM.
